Here are results for two compounds from PMC3660597, “Investigation of Specificity Determinants in Bacterial tRNA-Guanine Transglycosylase Reveals Queuine, the Substrate of Its Eucaryotic Counterpart, as Inhibitor” (PLoS ONE, 2013).

Structures are written as SMILES. Numbering of substitutions follows the chain as printed. Read-outs that look alike come from different tables or passages of the source.

The target in assay [1] is T1, Z. mobilis Tgt ("wild type" Tgt = Tgt(Tyr106Phe)) (Zymomonas mobilis, UniProt P28720, Y106F/C158V/A232S/V233G).
T1 construct: recombinant from pET9d-ZM-Y106F in E. coli BL21(DE3)/pLysS, purified; homodimer; all variants including "wild type" carry Tyr106Phe
T1 sequence (P28720 2-386 Y106F/C158V/A232S/V233G): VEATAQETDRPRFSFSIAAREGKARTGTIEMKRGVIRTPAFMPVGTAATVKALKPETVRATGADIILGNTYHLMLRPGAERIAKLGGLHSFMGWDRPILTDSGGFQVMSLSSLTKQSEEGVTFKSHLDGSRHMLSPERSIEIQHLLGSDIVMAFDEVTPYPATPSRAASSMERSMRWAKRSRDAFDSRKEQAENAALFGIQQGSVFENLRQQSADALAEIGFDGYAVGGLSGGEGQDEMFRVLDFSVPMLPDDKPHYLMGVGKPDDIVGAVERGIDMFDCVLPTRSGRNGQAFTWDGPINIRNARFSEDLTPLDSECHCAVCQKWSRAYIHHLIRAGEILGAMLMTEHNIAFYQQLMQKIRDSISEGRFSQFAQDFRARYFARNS
Nature of the assay: X-ray crystal structure of complex. In kind it is binding.

The target in assay [2] is T2, Z. mobilis Tgt ("wild type" Tgt = Tgt(Tyr106Phe)) (Zymomonas mobilis, UniProt P28720, Y106F).
T2 construct: recombinant from pET9d-ZM-Y106F in E. coli BL21(DE3)/pLysS, purified; homodimer; all variants including "wild type" carry Tyr106Phe
The assay can be described thus: inhibition of [[…]-3H]-guanine incorporation into tRNA(Tyr). In kind it is biochemical. The settings on record: read-out: K ic.
Target sequence in this assay (P28720 2-386 Y106F/C158V): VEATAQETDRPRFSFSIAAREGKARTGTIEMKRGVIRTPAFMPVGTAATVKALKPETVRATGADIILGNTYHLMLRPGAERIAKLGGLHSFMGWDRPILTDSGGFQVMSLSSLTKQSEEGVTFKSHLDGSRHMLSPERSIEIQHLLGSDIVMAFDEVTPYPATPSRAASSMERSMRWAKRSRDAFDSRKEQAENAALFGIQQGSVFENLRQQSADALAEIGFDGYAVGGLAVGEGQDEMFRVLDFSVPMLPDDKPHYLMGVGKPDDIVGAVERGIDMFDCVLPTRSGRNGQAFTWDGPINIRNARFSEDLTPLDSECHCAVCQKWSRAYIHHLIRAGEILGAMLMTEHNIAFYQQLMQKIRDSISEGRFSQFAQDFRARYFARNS

For assay [3], the target named is T2, Z. mobilis Tgt ("wild type" Tgt = Tgt(Tyr106Phe)). Described as above. Type of assay: biochemical. To be noted: read-out: K ic. This is another data set of the same source.
Target sequence in this assay (P28720 2-386 Y106F): as the sequence (P28720 2-386 Y106F/C158V) above, with V157C counted along it
Assay [4] concerns the target T3, Z. mobilis Tgt ("wild type" Tgt = Tgt(Tyr106Phe)) (Zymomonas mobilis, UniProt P28720, C158V/V233G/Y106F).
T3 construct: recombinant from pET9d-ZM-Y106F in E. coli BL21(DE3)/pLysS, purified; homodimer; all variants including "wild type" carry Tyr106Phe
T3 sequence (P28720 2-386 Y106F/C158V/V233G): T1 sequence (P28720 2-386 Y106F/C158V/A232S/V233G) with S231A
The assay is described as above. Type of assay: biochemical. The settings on record: read-out: K ic.

The target of assay [5] is T4, Z. mobilis Tgt ("wild type" Tgt = Tgt(Tyr106Phe)) (Zymomonas mobilis, UniProt P28720, V233G/Y106F).
T4 construct: recombinant from pET9d-ZM-Y106F in E. coli BL21(DE3)/pLysS, purified; homodimer; all variants including "wild type" carry Tyr106Phe
T4 sequence (P28720 2-386 Y106F/V233G): T1 sequence (P28720 2-386 Y106F/C158V/A232S/V233G) with V157C, S231A
Described as above. In kind it is biochemical. To be noted: read-out: K ic.

For the compound `NCc1c[nH]c2nc(N)[nH]c(=O)c12` [preQ1, 7-aminomethyl-7-deazaguanine], the “X-ray crystal structure of complex” value in assay [1] (soaking) is “in complex with preQ1 and in complex with queuine”.

For the compound `Nc1nc2[nH]cc(CN[C@H]3C=C[C@H](O)[C@@H]3O)c2c(=O)[nH]1` [queuine, 7-(((4,5-cis-dihydroxy-2-cyclopenten-1-yl)amino)methyl)-7-deazaguanine], the Ki in assay [2] was 3.8 ± 0.5 µM; in assay [3] it was 3.8 ± 0.6 µM; in assay [4], 8.9 ± 1.2 µM; in assay [5] it was 3.1 ± 0.2 µM. Besides, in assay [1] (cocrystallisation), the “X-ray crystal structure of complex” value is “in complex with preQ1 and in complex with queuine”.
